Results published in patent US8772298B2, “Spirocyclic heterocycles medicaments containing said compounds, use thereof and method for their production” (Boehringer Ingelheim International GmbH, priority 2008, dated 2014).

target: T1, human EGF-R (Homo sapiens, UniProt P00533); assay: Inhibition of EGFR-dependent proliferation (EGF-stimulated murine haematopoietic cell line expressing human EGF-R); assay type: cell-based; details: 20 ng/ml human EGF, 48 hours at 37° C., Cell Titer 96 AQueous assay
T1 construct: expressed in transfected cells
T1 sequence (P00533 25-1210): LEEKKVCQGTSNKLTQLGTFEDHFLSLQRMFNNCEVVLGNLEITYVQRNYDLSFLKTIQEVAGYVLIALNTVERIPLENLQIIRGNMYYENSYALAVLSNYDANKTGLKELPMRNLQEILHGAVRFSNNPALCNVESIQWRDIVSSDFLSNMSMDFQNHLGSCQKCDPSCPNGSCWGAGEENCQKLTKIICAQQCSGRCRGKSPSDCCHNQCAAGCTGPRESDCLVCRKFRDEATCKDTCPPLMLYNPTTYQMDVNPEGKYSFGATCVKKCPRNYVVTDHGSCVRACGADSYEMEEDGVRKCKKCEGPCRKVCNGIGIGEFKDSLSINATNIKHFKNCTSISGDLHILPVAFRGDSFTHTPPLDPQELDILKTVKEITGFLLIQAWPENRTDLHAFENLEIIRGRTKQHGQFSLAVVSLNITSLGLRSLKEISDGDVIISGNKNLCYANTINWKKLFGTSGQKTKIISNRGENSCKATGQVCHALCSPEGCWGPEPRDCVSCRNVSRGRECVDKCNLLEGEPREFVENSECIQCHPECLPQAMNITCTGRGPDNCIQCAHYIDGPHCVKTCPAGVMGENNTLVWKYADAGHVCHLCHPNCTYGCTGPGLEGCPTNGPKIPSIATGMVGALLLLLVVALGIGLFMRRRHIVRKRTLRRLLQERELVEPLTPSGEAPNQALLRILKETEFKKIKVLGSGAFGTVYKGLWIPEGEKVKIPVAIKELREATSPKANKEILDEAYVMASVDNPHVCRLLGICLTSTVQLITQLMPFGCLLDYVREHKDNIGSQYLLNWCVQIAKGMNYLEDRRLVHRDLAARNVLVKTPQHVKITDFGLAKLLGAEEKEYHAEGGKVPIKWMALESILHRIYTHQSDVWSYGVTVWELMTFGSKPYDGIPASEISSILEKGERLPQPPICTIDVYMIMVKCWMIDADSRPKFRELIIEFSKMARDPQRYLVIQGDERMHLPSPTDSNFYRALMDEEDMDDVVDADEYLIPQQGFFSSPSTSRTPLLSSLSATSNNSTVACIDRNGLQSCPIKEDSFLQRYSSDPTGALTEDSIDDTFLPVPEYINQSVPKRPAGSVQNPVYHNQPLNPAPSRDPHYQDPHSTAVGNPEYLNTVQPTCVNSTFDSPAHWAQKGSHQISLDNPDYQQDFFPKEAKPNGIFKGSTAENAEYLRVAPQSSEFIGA
Experimental: A murine haematopoietic cell line is genetically modified so as to express functional human EGF-R. The proliferation of this cell line can therefore be stimulated by EGF.
The test is carried out as follows:
The cells are cultivated in RPMI/1640 medium. The proliferation is stimulated with 20 ng/ml of human EGF (Promega). To investigate the inhibitory activity of the compounds according to the invention these compounds are dissolved in 100% dimethylsulphoxide (DMSO) and added to the cultures in various dilutions, the maximum DMSO concentration being 1%. The cultures are incubated for 48 hours at 37° C.
In order to determine the inhibitory activity of the compounds according to the invention the relative cell number is measured in O.D. Units using the Cell Titer 96™ AQueous Non-Radioactive Cell Proliferation Assay (Promega). The relative cell number is calculated as a percentage of the control and the concentration of active substance which inhibits the proliferation of the cells by 50% (IC50) is derived therefrom.

| SMILES | IC50 [nM] |
| --- | --- |
| COc1cc2ncnc(Nc3cccc(Cl)c3F)c2cc1O[C@H]1CC[C@@]2(CC1)NCCN(C)C2=O [1(1), anti-9-[4-(3-chloro-2-fluoro-phenylamino)-7-methoxy-quinazolin-6-yloxy]-4-methyl-1,4-diaza-spiro[5.5]undecan-5-one] | 2 |
| COc1cc2ncnc(Nc3cccc(Cl)c3F)c2cc1O[C@H]1CC[C@]2(CC1)NCCNC2=O [1(2), syn-9-[4-(3-chloro-2-fluoro-phenylamino)-7-methoxy-quinazolin-6-yloxy]-1,4-diaza-spiro[5.5]undecan-5-one] | 2 |
| COc1cc2ncnc(Nc3cccc(Cl)c3F)c2cc1O[C@H]1CC[C@]2(CC1)C(=O)N(C)CCN2C [2(1), anti-9-[4-(3-chloro-2-fluoro-phenylamino)-7-methoxy-quinazolin-6-yloxy]-1,4-dimethyl-1,4-diaza-spiro[5.5]undecan-5-one] | 2 |
| COc1cc2ncnc(Nc3cccc(Cl)c3F)c2cc1O[C@H]1CC[C@@]2(CC1)NCCNC2=O [Example 1, anti-9-[4-(3-chloro-2-fluoro-phenylamino)-7-methoxy-quinazolin-6-yloxy]-1,4-diaza-spiro[5.5]undecan-5-one] | 4 |
| COc1cc2ncnc(Nc3cccc(Cl)c3F)c2cc1O[C@H]1CC[C@]2(CC1)C(=O)NCCN2C [Example 2, anti-9-[4-(3-chloro-2-fluoro-phenylamino)-7-methoxy-quinazolin-6-yloxy]-1-methyl-1,4-diaza-spiro[5.5]undecan-5-one] | 1 |
